In patent publication US12415774B2, “Polyol-based esters of hydroxycarboxylic acids” (KetoLipix Therapeutics GmbH, priority 2019, dated 2025):

Each substance was assayed on pancreatin (Panzytrat 40,000).
Method: Both media are from the company Biorelevant®, Ltd. in Great Britain. In addition, in some experiments porcine pancreas is added (Panzytrat® 40,000, Fa. Allergan).
The pancreatin is used in the form of the commercially available product Panzytrat® 40,000 from the Allergan company. The whole mixture is stirred on a hot plate at 50° C.; the course of the reaction is determined and monitored by continuously recording the acid number over time.

Row | Substance | cleavage by pancreatin to the free 3-hydroxybutyric acid
1 | 3-BHB-mono-diglycerol ester | cleaved by pancreatin to the free 3-hydroxybutyric acid
2 | 3-BHB-di-diglycerol ester | cleaved by pancreatin to the free 3-hydroxybutyric acid
3 | 3-BHB-tri-diglycerol ester | cleaved by pancreatin to the free 3-hydroxybutyric acid
